Results as given in ChEMBL document CHEMBL4373665, “Discovery of new non-acidic lonazolac analogues with COX-2 selectivity as potent anti-inflammatory agents” (Medchemcomm, 2019).

Key:
[1] = Ulcerogenic activity in rat assessed as average number of ulcers formed at 50 mg/kg, sc qd for 4 days post 18 hrs fasting measured after 4 days; format: toxicity, organism-based; conditions: in vivo, 96 h
[2] = Nephrotoxicity in rat assessed as effect on proximal tubule at 50 mg/kg by hematoxylin and eosin staining based assay; format: toxicity, organism-based; conditions: in vivo
[3] = molecular target: T1, Prostaglandin G/H synthase 2 (Homo sapiens, UniProt P35354); assay: Inhibition of human recombinant COX2 assessed as decrease in prostaglandin production using arachidonic acid as substrate pretreated for 15 mins followed by substrate addition and measured after 2 mins by enzyme immunoassay
T1 sequence (P35354 whole entry): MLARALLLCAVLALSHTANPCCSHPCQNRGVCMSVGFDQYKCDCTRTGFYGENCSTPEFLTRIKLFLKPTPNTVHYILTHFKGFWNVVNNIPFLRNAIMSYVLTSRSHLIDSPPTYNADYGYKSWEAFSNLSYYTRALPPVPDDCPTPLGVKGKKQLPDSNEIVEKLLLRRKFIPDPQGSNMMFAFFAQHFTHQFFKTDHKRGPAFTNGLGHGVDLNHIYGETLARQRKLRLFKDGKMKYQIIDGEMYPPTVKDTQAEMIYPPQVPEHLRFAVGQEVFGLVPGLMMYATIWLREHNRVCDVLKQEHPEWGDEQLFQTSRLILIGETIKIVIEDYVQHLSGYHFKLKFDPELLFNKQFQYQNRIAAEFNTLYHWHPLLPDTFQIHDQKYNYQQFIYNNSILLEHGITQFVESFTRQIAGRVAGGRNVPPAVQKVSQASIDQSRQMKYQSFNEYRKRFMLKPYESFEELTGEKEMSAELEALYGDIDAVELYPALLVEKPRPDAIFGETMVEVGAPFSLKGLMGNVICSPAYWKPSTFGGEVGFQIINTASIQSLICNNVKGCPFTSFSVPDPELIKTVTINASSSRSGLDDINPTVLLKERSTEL

Rattus norvegicus [4] = assay: Anti-inflammatory activity in albino rat model of carrageenan-induced paw edema assessed as inhibition of carrageenan-induced paw edema at 100 mg/kg, po administered as single dose prior to carrageenan challenge measured after 3 hrs relative to control; format: functional
[5] = Ulcerogenic activity in rat assessed as incidence of gastric ulceration at 50 mg/kg, sc qd for 4 days post 18 hrs fasting measured after 4 days relative to control; format: toxicity, organism-based; conditions: in vivo, 96 h
Rattus norvegicus [6] = assay: Anti-inflammatory activity in albino rat model of carrageenan-induced paw edema assessed as inhibition of carrageenan-induced paw edema at 100 mg/kg, po administered as single dose prior to carrageenan challenge measured after 12 hrs relative to control; format: functional
[7] = Ulcerogenic activity in rat assessed as average severity of ulcers formed at 50 mg/kg, sc qd for 4 days post 18 hrs fasting measured after 4 days; format: toxicity, organism-based; conditions: in vivo, 96 h
[8] = Nephrotoxicity in rat assessed as effect on distal tubule at 50 mg/kg by hematoxylin and eosin staining based assay; format: toxicity, organism-based; conditions: in vivo
Rattus norvegicus [9] = assay: Anti-inflammatory activity in albino rat model of carrageenan-induced paw edema assessed as inhibition of carrageenan-induced paw edema at 100 mg/kg, po administered as single dose prior to carrageenan challenge measured after 1 hr relative to control; format: functional
Rattus norvegicus [10] = assay: Anti-inflammatory activity in albino rat model of carrageenan-induced paw edema assessed as inhibition of carrageenan-induced paw edema at 100 mg/kg, po administered as single dose prior to carrageenan challenge measured after 8 hrs relative to control; format: functional
[11] = Hepatotoxicity in rat assessed as effect on bile ducts at 50 mg/kg by hematoxylin and eosin staining based assay; format: toxicity, organism-based; conditions: in vivo
[12] = Ulcerogenic activity in rat assessed as ulcer index at 50 mg/kg, sc qd for 4 days post 18 hrs fasting measured after 4 days; format: toxicity, organism-based; conditions: in vivo, 96 h
[13] = Hepatotoxicity in rat assessed as effect on central veins in liver at 50 mg/kg by hematoxylin and eosin staining based assay; format: toxicity, organism-based; conditions: in vivo
Homo sapiens = species on record: Homo sapiens; assay: Selectivity index, ratio of IC50 for human recombinant COX1 to IC50 for human recombinant COX2 using arachidonic acid as substrate
Rattus norvegicus [14] = assay: Anti-inflammatory activity in albino rat model of carrageenan-induced paw edema assessed as inhibition of carrageenan-induced paw edema at 100 mg/kg, po administered as single dose prior to carrageenan challenge measured after 4 hrs relative to control; format: functional
[15] = Ulcerogenic activity in rat assessed as effect on mucosal blood vessel at 50 mg/kg by hematoxylin and eosin staining based assay; format: toxicity, organism-based; conditions: in vivo
[16] = Ulcerogenic activity in rat assessed as effect on gastric submucosa at 50 mg/kg by hematoxylin and eosin staining based assay; format: toxicity, organism-based; conditions: in vivo
[17] = Hepatotoxicity in rat assessed as effect on hepatocytes in periportal area at 50 mg/kg by hematoxylin and eosin staining based assay; format: toxicity, organism-based; conditions: in vivo
[18] = Nephrotoxicity in rat assessed as effect on glomeruli at 50 mg/kg surrounded by Bowmann's capsule by hematoxylin and eosin staining based assay; format: toxicity, organism-based; conditions: in vivo
[19] = Hepatotoxicity in rat assessed as effect on portal veins at 50 mg/kg by hematoxylin and eosin staining based assay; format: toxicity, organism-based; conditions: in vivo
[20] = Ulcerogenic activity in rat assessed as effect on parietal cells at 50 mg/kg by hematoxylin and eosin staining based assay; format: toxicity, organism-based; conditions: in vivo
[21] = molecular target: Prostaglandin G/H synthase 1 (Homo sapiens, UniProt P23219); assay: Inhibition of human recombinant COX1 assessed as decrease in prostaglandin production using arachidonic acid as substrate pretreated for 15 mins followed by substrate addition and measured after 2 mins by enzyme immunoassay; format: single protein
[22] = Ulcerogenic activity in rat assessed as effect on gastric mucosa at 50 mg/kg by hematoxylin and eosin staining based assay; format: toxicity, organism-based; conditions: in vivo

Chain of Prostaglandin G/H synthase 1 (P23219 whole entry): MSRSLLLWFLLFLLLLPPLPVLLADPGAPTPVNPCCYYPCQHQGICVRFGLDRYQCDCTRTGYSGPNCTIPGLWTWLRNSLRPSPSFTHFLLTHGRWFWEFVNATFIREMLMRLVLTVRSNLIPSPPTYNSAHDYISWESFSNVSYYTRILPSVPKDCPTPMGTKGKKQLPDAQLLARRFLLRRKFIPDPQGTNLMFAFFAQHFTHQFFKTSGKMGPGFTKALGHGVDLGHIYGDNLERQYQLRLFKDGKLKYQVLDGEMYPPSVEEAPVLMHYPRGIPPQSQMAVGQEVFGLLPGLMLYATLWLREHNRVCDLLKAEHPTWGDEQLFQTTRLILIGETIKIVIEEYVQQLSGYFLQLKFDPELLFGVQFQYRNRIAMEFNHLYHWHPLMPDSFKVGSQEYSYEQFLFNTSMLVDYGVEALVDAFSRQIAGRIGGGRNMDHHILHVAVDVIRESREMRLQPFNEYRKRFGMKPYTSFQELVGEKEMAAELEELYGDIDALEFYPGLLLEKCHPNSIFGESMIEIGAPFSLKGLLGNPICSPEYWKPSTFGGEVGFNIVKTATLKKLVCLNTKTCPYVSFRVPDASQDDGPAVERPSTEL

SMILES	Activity [1]	Activity [2]	inhibition in vivo at 100 mg/kg (Rattus norvegicus [4]) [%]	Activity [5] [%]	inhibition in vivo at 100 mg/kg (Rattus norvegicus [6]) [%]	Activity [7]	Activity [8]	inhibition in vivo at 100 mg/kg (Rattus norvegicus [9]) [%]	inhibition in vivo at 100 mg/kg (Rattus norvegicus [10]) [%]	Activity [11]	UI [12]	Activity [13]	inhibition in vivo at 100 mg/kg (Rattus norvegicus [14]) [%]	Activity [15]	Activity [16]	Activity [17]	Activity [18]	Activity [19]	Activity [20]	Activity [22]	also measured
O=C(/C=C/c1cn(-c2ccccc2)nc1-c1ccc(OCc2ccccc2)cc1)c1ccc(Cl)cc1	0.2	Non-Toxic	77.1	2	41.4	0.2	Non-Toxic	89.7	48.6	Non-Toxic	2.4	Non-Toxic	69.9	Non-Toxic	Non-Toxic	Non-Toxic	Non-Toxic	Non-Toxic	Non-Toxic	Non-Toxic	IC50 [3]: 600 nM; Ratio IC50 (Homo sapiens): 9.32; IC50 [21]: 5590 nM
N#CC1=C(N)OC(c2ccccc2)=CC1c1cn(-c2ccccc2)nc1-c1ccc(OCc2ccccc2)cc1 (stereo unspecified)	0.8	Toxic	59.5	4	28.2	0.4	Toxic	69	42.9	Toxic	5.2	Toxic	54.5	Toxic	Toxic	Toxic	Toxic	Toxic	Toxic	Toxic	IC50 [3]: 720 nM; Ratio IC50 (Homo sapiens): 5.58; IC50 [21]: 4020 nM
Cc1ccc(-c2cc(C(F)(F)F)nn2-c2ccc(S(N)(=O)=O)cc2)cc1 [CELECOXIB]	0.6	Toxic	58.5	2	34.6	0.6	Toxic	56.1	44.9	Toxic	3.2	Toxic	48.1	Toxic	Toxic	Toxic	Toxic	Toxic	Toxic	Toxic	–
COc1ccc2c(c1)c(CC(=O)O)c(C)n2C(=O)c1ccc(Cl)cc1 [INDOMETHACIN]	5	Toxic	79.8	10	55.6	2.6	Toxic	80.2	62.5	Toxic	17.6	Toxic	65.2	Toxic	Toxic	Toxic	Toxic	Toxic	Toxic	Toxic	–
